Entries after “also recorded” stand apart in the source; their conditions may differ. Where two headings read alike, the source gives them in different places. Each block holds one molecule with its values, some of them ahead of it.
What was measured:
[1] = test system: serine hydrolases in PC3 cells; test: ABPP-SILAC, PC3 cells treated in situ, other SH targets; format: cell-based, human; conditions: 4 h in situ
Experimental: In situ inhibitor treatments of human cell lines were performed as described previously (Hsu et al., J Med Chem 56, 8270-8279, 2012). Briefly, PC3 or transfected HEK293T cells were grown to confluency in serum-containing media (RPMI or DMEM, respectively). The culture media was then removed and replaced with fresh media containing DMSO or inhibitor at the desired concentration and incubated for 4 hours in a tissue culture incubator (37° C., 5% CO2). Cells were then washed with PBS, harvested, washed with PBS once more, and lysed with a probe sonicator.
The activity and selectivity of dual ABHD3/4 and ABHD4-preferring inhibitors in PC3 cells by ABPP-SILAC was assessed. Isotopically heavy and light PC3 cells were treated in situ with inhibitor (Compound 37 (1 μM) or Compound 38 (0.5 μM)) or DMSO for 4 h and then lysed and processed for ABPP-SILAC analysis.
Isotopically heavy- and light-labeled PC3 cells were treated with Compound 37 (1 μM) or DMSO for 4 h, respectively, lysed, and then treated Compound 39 (5 μM, 1 h). […] Among the handful of additional SH targets of Compound 37 were ABHD6 and PLA2G7, which were expected based on our ABPP-SILAC studies with FP-biotin (see FIG. 9), and protein-palmitoyl thioesterase 1 (PPT1), which was inhibited by more than 90%. […] Accordingly, PPT1 was not detected in our previous ABPP-SILAC studies with FP-biotin (see FIG. 9). The selective enrichment of PPT1 by Compound 39 was confirmed by performing a probe-versus-probe ABPP-SILAC study, where heavy and light PC3 proteomes were treated with FP-biotin (2.5 μM, 1 h) and Compound 39 (5 μM, 1 h), respectively. PPT1, along with two additional SHs LIPA and DDHD2, were preferentially enriched by Compound 39 over FP-biotin, while most of the other SHs were more strongly enriched by FP-biotin (see FIG. 13). A handful of SHs corresponding mostly to enzymes that were identified in our ABPP-SILAC studies as targets of Compound 37 (see FIGS. 9 and 12), were equivalently enriched by Compound 39 and FP-biotin (see FIG. 13).
To evaluate the broader selectivity of Compound 26 and Compound 34 across the SH class, heavy and light isotopically-labeled PC3 cells were treated with inhibitor [Compound 34 (1 μM); or Compound 26 (1 or 0.1 μM); 4 h) and DMSO, respectively, followed by ABPP-SILAC analysis with either the FP-biotin probe or the Compound 39 probe. […] Conversely, Compound 34 inhibited >90% of ABHD4 activity, as measured with either the FP-biotin probe or the Compound 39 probe, and cross-reacted with four additional targets—ABHD6, PAFAH2, PLA2G7, and PLA2G15.

[2] = target: T1, PPT1 (Homo sapiens, UniProt P50897); test: PPT1 substrate assay in vitro, hPPT1-transfected HEK293T cell lysates; format: biochemical; design: expressed in transfected cells; host or cells: HEK293T; conditions: for activity against PPT1 in situ and in vitro: in words, figures in the 9th table
T1 sequence (P50897 28-306): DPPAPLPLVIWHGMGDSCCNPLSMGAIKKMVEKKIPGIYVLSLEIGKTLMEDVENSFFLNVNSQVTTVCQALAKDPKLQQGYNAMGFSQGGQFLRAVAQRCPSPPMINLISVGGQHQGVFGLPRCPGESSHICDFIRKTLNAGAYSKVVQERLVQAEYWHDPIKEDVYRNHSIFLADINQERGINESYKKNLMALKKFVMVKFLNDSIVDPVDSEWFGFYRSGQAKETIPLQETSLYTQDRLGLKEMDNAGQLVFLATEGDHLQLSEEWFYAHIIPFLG
Experimental: PPT1 activity was assessed in vitro using a substrate assay adapted from previous studies (van Diggelen et al., Molecular genetics and metabolism 66, 240-244, 1999). Lysates from HEK293T cells transfected with an empty vector, or human PPT1 under a CMV promoter were adjusted to 1 mg/ml in PBS (25 μl), and then combined 1:1 with Mcllvain's phosphate/citrate buffer containing 0.375% (v/v) Triton-X 100 and 15 mM DTT (pH 5.0). This sample was pre-treated with inhibitor or DMSO for 30 minutes at 37° C., and 10 μl (5 μg protein) was used in the substrate assay as follows: Samples were diluted in a black 96-well plate (half-area) with 20 μl McIlvain's phosphate/citrate buffer (pH 5.0) containing 0.375% TX-100 and 15 mM DTT, as well as 0.64 mM MU-6S-Palm-PD-Glc and 0.1 U sweet almond glucosidase (Sigma). The reactions were incubated at 37° C. for 1 hour, quenched with 120 μl sodium bicarbonate buffer (pH 10.0), and hydrolysis by 4-MU fluorescence measured by excitement at […] and emission intensity at […]. 16 μg protein was used for analysis of native PC3 cells.
Compound 26 was then tested to see if it inhibited PPT1 activity using a substrate assay. Endogenous substrates for PPT1 remain poorly characterized, but this enzyme was assayed with a fluorogenic substrate 4-methylumbelliferyl-6-thio-palmitate-βD-glucopyranoside (MU-6S-Palm-βD-Glc). In this assay, PPT1 hydrolyzes the substrate's palmitoyl thioester bond, and exogenous sweet almond β-glucosidase deglycosylates and frees the fluorophore, 4-methylumbelliferone (4-MU), which is measured to assess PPT1 activity.

[3] = cell lysates, pH 5.0, MU-6S-Palm-βD-Glc substrate, 95% confidence intervals in parentheses, read-out: IC50 for inhibition of human PPT1, in vitro (substrate)

IC50 [2, 3]: > 50 µM | activity against PPT1 in situ and in vitro [2]: limited activity against PPT1
SMILES: O=C(ON1C(=O)C2CN(Cc3ccc(Oc4ccccc4)cc3)CCN2C1=O)N1CCOCC1 (stereo not shown) [Compound 34, 1,3-dioxo-7-(4-phenoxybenzyl)hexahydroimidazo[1,5-a]pyrazin-2(3H)-yl morpholine-4-carboxylate]
additional cross-reacting targets ([1]; 1 μM, PC3): ABHD6; also recorded: PAFAH2; also recorded: PLA2G7; also recorded: PLA2G15

IC50 ([2]; human PPT1, in vitro, method not stated at Table 5, read-out: hPPT1 in vitro potency (IC50)): 3.97 µM
SMILES: COc1ccc(N2CCN(C(=O)ON3C(=O)[C@@H]4CN(CC5CCN(Cc6ccccc6)CC5)CCN4C3=O)CC2)cc1 [Compound 42, (S)-7-((1-benzylpiperidin-4-yl)methyl)-1,3-dioxo-hexahydroimidazo[1,5-a]pyrazin-2(3H)-yl 4-(4-methoxyphenyl)piperazine-1-carboxylate]

SMILES: O=C(ON1C(=O)C2CN(Cc3ccc(Oc4ccccc4)cc3)CCN2C1=O)N1CCC(c2ccccc2)CC1 (stereo not shown) [Compound 38, 1,3-dioxo-7-(4-phenoxybenzyl)hexahydroimidazo[1,5-a]pyrazin-2(3H)-yl 4-phenylpiperidine-1-carboxylate]
additional targets among 44 serine hydrolases ([1]; 0.5 μM, PC3, FP-biotin): LIPE and PLA2G7 and ABHD6 and CES2

SMILES: COc1ccc(N2CCN(C(=O)ON3C(=O)C4CN(Cc5ccc(Oc6ccccc6)cc5)CCN4C3=O)CC2)cc1 (stereo not shown) [Compound 37, 1,3-dioxo-7-(4-phenoxybenzyl)hexahydroimidazo[1,5-a]pyrazin-2(3H)-yl 4-(4-methoxyphenyl)piperazine-1-carboxylate]
SHs inhibited in PC3 cells ([1]; 1 μM, Compound 39 probe): ABHD4; also recorded: ABHD6; also recorded: PLA2G7

IC50 [2, 3]: 15 µM | activity against PPT1 in situ and in vitro [2]: did, however, inhibit PPT1 activity
SMILES: O=C(ON1C(=O)C2CN(C(=O)N3CCOCC3)CCN2C1=O)N1CCC(CCc2ccc(Cl)cc2)CC1 (stereo not shown) [Compound 1, 7-(morpholine-4-carbonyl)-1,3-dioxohexahydroimidazo[1,5-a]pyrazin-2(3H)-yl 4-(4-chloro-phenethyl)piperidine-1-carboxylate]

IC50 ([2]; transfected lysates, pH 5.0, MU-6S-Palm-βD-Glc, read-out: PPT1 IC50, substrate assay): 6.5 µM
SMILES: COc1ccc(N2CCN(C(=O)ON3C(=O)C4CN(CC5CCN(Cc6ccccc6)CC5)CCN4C3=O)CC2)cc1 (stereo not shown) [Compound 26, 7-((1-benzylpiperidin-4-yl)methyl)-1,3-dioxohexahydroimidazo[1,5-a]pyrazin-2(3H)-yl 4-(4-methoxyphenyl)piperazine-1-carboxylate]
cross-reacting SHs of >40 quantified ([1]; 1 or 0.1 μM, PC3): ABHD6 and CPVL
